Data as given in patent US8193356B2, “Heterocycle compound, and production process and application thereof” (Aska Pharmaceutical Co., Ltd., priority 2005, dated 2012).

Row | Structure (SMILES) | melting point
1 | O=c1c2c(Cc3ccccc3)n[nH]c2c2ccncc2n1-c1ccccc1 [Example 29, 3-Benzyl-5-phenyl-1H-pyrazolo[4,3-c][1,7]naphthyridin-4(5H)-one] | 303 to 307 °C
2 | O=c1c2c(Cc3ccccc3C(F)(F)F)n[nH]c2c2cccnc2n1-c1cccc(C(F)(F)F)c1 [Example 17, 3-(2-Trifluoromethylbenzyl)-5-(3-trifluoromethylphenyl)-1H-pyrazolo[4,3-c][1,8]naphthyridin-4(5H)-one] | 260 to 264 °C
3 | CCC(c1ccccc1)c1n[nH]c2c1c(=O)n(-c1ccccc1)c1ncccc21 (centres unmarked) [Example 43, 5-Phenyl-3-(1-phenylpropyl)-1H-pyrazolo[4,3-c][1,8]naphthyridin-4(5H)-one] | 233 to 235 °C
4 | O=c1c2c(Cc3cccc(OC(F)(F)F)c3)n[nH]c2c2cccnc2n1-c1cccc(OC(F)(F)F)c1 [Example 27, 3-(3-Trifluoromethoxybenzyl)-5-(3-trifluoromethoxyphenyl)-1H-pyrazolo[4,3-c][1,8]naphthyridin-4(5H)-one] | 174 to 177 °C
5 | O=c1c2c(Cc3ccccc3OC(F)(F)F)n[nH]c2c2cccnc2n1-c1ccccc1 (hydrate or solvate) [Example 4, 5-Phenyl-3-(2-trifluoromethoxybenzyl)-1H-pyrazolo[4,3-c][1,8]naphthyridin-4(5H)-one] | 275 °C (dec.)
6 | O=c1c2c(Cc3ccc(C(F)(F)F)cc3)n[nH]c2c2cccnc2n1-c1cccc(C(F)(F)F)c1 [Example 19, 3-(4-Trifluoromethylbenzyl)-5-(3-trifluoromethylphenyl)-1H-pyrazolo[4,3-c][1,8]naphthyridin-4(5H)-one] | 145 to 148 °C
7 | O=c1c2c(Cc3ccccc3OC(F)(F)F)n[nH]c2c2cccnc2n1-c1cccc(C(F)(F)F)c1 [Example 20, 3-(2-Trifluoromethoxybenzyl)-5-(3-trifluoromethylphenyl)-1H-pyrazolo[4,3-c][1,8]naphthyridin-4(5H)-one] | 247 to 252 °C
8 | O=c1c2c(Cc3ccccc3)n[nH]c2c2cccnc2n1-c1cccc(OC(F)(F)F)c1 (hydrate or solvate) [Example 1, 3-Benzyl-5-(3-trifluoromethoxyphenyl)-1H-pyrazolo[4,3-c][1,8]-naphthyridin-4(5H)-one] | 249 to 251 °C
9 | O=c1c2c(Cc3cccc(C(F)(F)F)c3)n[nH]c2c2cccnc2n1-c1ccccc1 [Example 9, 5-Phenyl-3-(3-trifluoromethylbenzyl)-1H-pyrazolo[4,3-c][1,8]naphthyridin-4(5H)-one] | 303 to 305 °C
10 | O=c1c2c(Cc3ccccc3C(F)(F)F)n[nH]c2c2cccnc2n1-c1cccc(OC(F)(F)F)c1 [Example 23, 5-(3-Trifluoromethoxyphenyl)-3-(2-trifluoromethylbenzyl)-1H-pyrazolo[4,3-c][1,8]naphthyridin-4(5H)-one] | 252 to 255 °C
11 | COc1ccccc1Cc1n[nH]c2c1c(=O)n(-c1cccc(C(F)(F)F)c1)c1ncccc21 (hydrate or solvate) [Example 37, 3-(2-Methoxybenzyl)-5-(3-trifluoromethylphenyl)-1H-pyrazolo[4,3-c][1,8]-naphthyridin-4(5H)-one] | 229 to 231 °C
12 | O=c1c2c(CC3CCCCC3)n[nH]c2c2cccnc2n1-c1ccccc1 [Example 13, 3-Cyclohexylmethyl-5-phenyl-1H-pyrazolo[4,3-c][1,8]naphthyridin-4(5H)-one] | 280 to 281 °C
13 | O=c1c2c(Cc3ccccc3Cl)n[nH]c2c2cccnc2n1-c1cccc(OC(F)(F)F)c1 (hydrate or solvate) [Example 33, 3-(2-Chlorobenzyl)-5-(3-trifluoromethoxyphenyl)-1H-pyrazolo[4,3-c][1,8]-naphthyridin-4(5H)-one] | 273 to 275 °C
14 | O=c1c2c(Cc3cccc(C(F)(F)F)c3)n[nH]c2c2cccnc2n1-c1cccc(C(F)(F)F)c1 [Example 18, 3-(3-Trifluoromethylbenzyl)-5-(3-trifluoromethylphenyl)-1H-pyrazolo[4,3-c][1,8]naphthyridin-4(5H)-one] | 206 to 208 °C
15 | O=c1c2c(Cc3ccc(C(F)(F)F)cc3)n[nH]c2c2cccnc2n1-c1ccccc1 [Example 7, 5-Phenyl-3-(4-trifluoromethylbenzyl)-1H-pyrazolo[4,3-c][1,8]naphthyridin-4(5H)-one] | 216 to 219 °C
16 | O=c1c2c(Cc3ccccc3)n[nH]c2c2ncccc2n1-c1ccccc1 (hydrate or solvate) [Example 30, 3-Benzyl-5-phenyl-1H-pyrazolo[4,3-c][1,5]naphthyridin-4(5H)-one] | 269 to 272 °C
17 | O=c1c2c(Cc3ccccc3)n[nH]c2c2ccccc2n1-c1ccccc1 [Example 16, 3-Benzyl-5-phenyl-1H-pyrazolo[4,3-c]quinolin-4(5H)-one] | 255 to 257 °C
18 | O=c1c2c(CC3CCOCC3)n[nH]c2c2cccnc2n1-c1ccccc1 (hydrate or solvate) [Example 44, 5-Phenyl-3-(tetrahydro-2H-pyran-4-ylmethyl)-1H-pyrazolo[4,3-c][1,8]naphthyridin-4(5H)-one] | 228 to 234 °C

Row | Structure (SMILES) | melting point
19 | O=c1c2c(Cc3ccc(OC(F)(F)F)cc3)n[nH]c2c2cccnc2n1-c1ccccc1 (hydrate or solvate) [Example 6, 5-Phenyl-3-(4-trifluoromethoxybenzyl)-1H-pyrazolo[4,3-c][1,8]naphthyridin-4(5H)-one] | 216 to 218 °C
20 | O=c1c2c(Cc3ccc(F)cc3)n[nH]c2c2cccnc2n1-c1cccc(OC(F)(F)F)c1 (hydrate or solvate) [Example 32, 3-(4-Fluorobenzyl)-5-(3-trifluoromethoxyphenyl)-1H-pyrazolo[4,3-c][1,8]-naphthyridin-4(5H)-one] | 226 to 228 °C
21 | Cc1ccccc1Cc1n[nH]c2c1c(=O)n(-c1cccc(OC(F)(F)F)c1)c1ncccc21 (hydrate or solvate) [Example 34, 3-(2-Methylbenzyl)-5-(3-trifluoromethoxyphenyl)-1H-pyrazolo[4,3-c][1,8]-naphthyridin-4(5H)-one] | 240 to 242 °C
22 | CC(c1ccccc1)c1n[nH]c2c1c(=O)n(-c1cccc(C(F)(F)F)c1)c1ncccc21 (centres unmarked) [Example 42, 3-(1-Phenylethyl)-5-(3-trifluoromethylphenyl)-1H-pyrazolo[4,3-c][1,8]naphthyridin-4(5H)-one] | 235 to 237 °C
23 | O=c1c2c(Cc3ccccc3[N+](=O)[O-])n[nH]c2c2cccnc2n1-c1cccc(C(F)(F)F)c1 (hydrate or solvate) [Example 41, 3-(2-Nitrobenzyl)-5-(3-trifluoromethylphenyl)-1H-pyrazolo[4,3-c][1,8]-naphthyridin-4(5H)-one] | 282 to 284 °C
24 | O=c1c2c(Cc3cccc(OC(F)(F)F)c3)n[nH]c2c2cccnc2n1-c1cccc(C(F)(F)F)c1 [Example 21, 3-(3-Trifluoromethoxybenzyl)-5-(3-trifluoromethylphenyl)-1H-pyrazolo[4,3-c][1,8]naphthyridin-4(5H)-one] | 129 to 132 °C
25 | COc1ccccc1Cc1n[nH]c2c1c(=O)n(-c1cccc(OC(F)(F)F)c1)c1ncccc21 (hydrate or solvate) [Example 31, 3-(2-Methoxybenzyl)-5-(3-trifluoromethoxyphenyl)-1H-pyrazolo[4,3-c][1,8]-naphthyridin-4(5H)-one] | 243 to 245 °C
26 | COCc1n[nH]c2c1c(=O)n(-c1ccccc1)c1ncccc21 (hydrate or solvate) [Example 10, 3-(Methoxymethyl)-5-phenyl-1H-pyrazolo[4,3-c][1,8]naphthyridin-4(5H)-one] | 263 to 265 °C
27 | O=c1c2c(Cc3ccc(OC(F)(F)F)cc3)n[nH]c2c2cccnc2n1-c1cccc(C(F)(F)F)c1 [Example 22, 3-(4-Trifluoromethoxybenzyl)-5-(3-trifluoromethylphenyl)-1H-pyrazolo[4,3-c][1,8]naphthyridin-4(5H)-one] | 134 to 137 °C
28 | Cc1ccc2c3[nH]nc(Cc4ccccc4)c3c(=O)n(-c3ccccc3)c2n1 (hydrate or solvate) [Example 3, 3-Benzyl-7-methyl-5-phenyl-1H-pyrazolo[4,3-c][1,8]-naphthyridin-4(5H)-one] | 300 to 302 °C
29 | CC(c1ccccc1)c1n[nH]c2c1c(=O)n(-c1ccccc1)c1ncccc21 (centres unmarked) (hydrate or solvate) [Example 11, 5-Phenyl-3-(1-phenylethyl)-1H-pyrazolo[4,3-c][1,8]naphthyridin-4(5H)-one] | 267 to 268 °C
30 | O=c1c2c(Cc3ccccc3OC(F)(F)F)n[nH]c2c2cccnc2n1-c1cccc(OC(F)(F)F)c1 [Example 26, 3-(2-Trifluoromethoxybenzyl)-5-(3-trifluoromethoxyphenyl)-1H-pyrazolo[4,3-c][1,8]naphthyridin-4(5H)-one] | 233 to 236 °C
31 | O=c1c2c(Cc3ccc(C(F)(F)F)cc3)n[nH]c2c2cccnc2n1-c1cccc(OC(F)(F)F)c1 [Example 25, 5-(3-Trifluoromethoxyphenyl)-3-(4-trifluoromethylbenzyl)-1H-pyrazolo[4,3-c][1,8]naphthyridin-4(5H)-one] | 227 to 231 °C
32 | O=c1c2c(Cc3cccc(OC(F)(F)F)c3)n[nH]c2c2cccnc2n1-c1ccccc1 (hydrate or solvate) [Example 5, 5-Phenyl-3-(3-trifluoromethoxybenzyl)-1H-pyrazolo[4,3-c][1,8]naphthyridin-4(5H)-one] | 253 to 254 °C
33 | O=c1c2c(Cc3ccccc3[N+](=O)[O-])n[nH]c2c2cccnc2n1-c1cccc(OC(F)(F)F)c1 (hydrate or solvate) [Example 35, 3-(2-Nitrobenzyl)-5-(3-trifluoromethoxyphenyl)-1H-pyrazolo[4,3-c][1,8]-naphthyridin-4(5H)-one] | 274 to 276 °C
34 | O=c1c2c(CCC(F)(F)F)n[nH]c2c2cccnc2n1-c1ccccc1 [Example 14, 5-Phenyl-3-(3,3,3-trifluoropropyl)-1H-pyrazolo[4,3-c][1,8]naphthyridin-4(5H)-one] | 272 to 274 °C
35 | O=c1c2c(Cc3ccc(F)cc3)n[nH]c2c2cccnc2n1-c1cccc(C(F)(F)F)c1 (hydrate or solvate) [Example 38, 3-(4-Fluorobenzyl)-5-(3-trifluoromethylphenyl)-1H-pyrazolo[4,3-c][1,8]-naphthyridin-4(5H)-one] | 243 to 245 °C
